In patent US5929074A, “Pyridazinone derivatives with pharmaceutical activity” (Nissan Chemical Industries, Ltd., priority 1993, dated 1999):
Like-named read-outs stand apart in the source and are kept apart here.

Columns and labels:
[1] = system: guinea-pig trachea; assay: Bronchodilating effect in vitro, Method 1-1: relaxation of LTD4-contracted guinea-pig trachea strips; assay type: cell-based; settings: Cavia porcellus, read-out: EC50 (concentration to achieve 50% relaxation relative to relaxation by 1 mM aminophylline)
Experimental: (§1) A test sample drug was dissolved in 100% dimethylsulfoxide (DMSO, Wako Junyaku) and diluted for use. Leukotriene D4 (LTD4, Ultrafine) and isoproterenol (Isoproterenol, Sigma) were diluted with distilled water. Indomethacin (Indo, Sigma) was dissolved in 100% ethanol (EtOH, Komune Kagaku). Aminophylline (AP, Sigma), histamine dihydrochloride (His, Wako Junyaku) was dissolved in distilled water. The final concentrations of DMSO and EtOH in a bath were made not higher than 0.25% v/v and not higher than 0.1% v/v, respectively. Method 1:1:
(§2) A guinea-pig of 300-450 g was exsanguinated, and the trachea was taken out. After removing fat and connective tissues, it was cut and divided into 2 to 3 spiral strips, each having a width of about 2 mm and containing 4 smooth muscle tissues. Each specimen thus prepared was suspended in an organ bath of 8 ml containing a modified Tyrode solution aerated with 95% O2 +5% CO2 at 37° C., and a load of 1 g was applied thereto. The relaxation of the muscle was recorded by a pen recorder (Yokogawa Hokushin Electric, type 3066) by means of an isotonic transducer (Nihon Kohden, TD-112S).
The composition of the modified Tyrode solution was as follows (mM):
The specimen was allowed to stand for 50-60 minutes, and was contracted with histamine dihydrochloride (100 μM). After the reaction became constant, it was washed and allowed to stand for 20-30 minutes. Indomethacin (5 μM) was added thereto, and after incubation for 30 minutes, the specimen was contracted by adding LTD4 (30 nM). After the reaction-became stable, a test sample drug was accumulatively administered. Finally, AP (1 mM) was added to achieve the maximum relaxation reaction. The result was expressed by relaxation percent relative to the relaxation by AP which was rated 100%, and a concentration to achieve 50% relaxation (EC50, μM) was measured. As a control drug, AP was used.

[2] = system: anaphylactic bronchoconstriction mediated by endogeneously liberated SRS-A; assay: Effect on anaphylactic bronchoconstriction mediated by endogeneously liberated SRS-A in passively sensitized guinea-pig; assay type: in vivo; settings: for inhibition in vivo at 30 mg/kg: Cavia porcellus, po, 2 h
Experimental: Effect on anaphylactic bronchoconstriction mediated by endogeneously liberated SRS-A in passively sensitized guinea-pig
Male guinea-pigs (350-450 g) were passively sensitized with intravenous (i.v.) injection of 0.125 ml rabbit anti-EA (egg albumin) serum (Capple Laboratories) 1 to 2 days preceding the experiment. Antigen-induced anaphylactic bronchoconstrictions mediated by endogeneously liberated SRS-A were measured by modified method of Konzett and Rossler (Arch. Exp. Path. Pharmak., 195, 71, 1940). Sensitized quinea-pigs were anaesthetized with intraperitoneal injection of urethane (1.5 g/kg). The right jugular vein was cannulated for the administration of the all agents and trachea was cannulated to record total pulmonary resistance. Guinea-pigs were artificially ventilated by a small animal respirator (Shinano, Model SN-480-7) set at a stroke volume of 4.5 ml and a rate of 50 breaths per min. The change in pulmonary resistance was measured with a pressure transducer (Nihon Kohden, Model TP-602T) connected to a T-tube on the tracheal cannula. The percentage of the maximum bronchoconstriction obtained by clamping off the trachea. Following surgical preparation, the animals were pretreated with indomethacin (2 mg/kg, 10 min), pyrilamine (2 mg/kg, 6 min) and propranolol (0.1 mg/kg, 5 min) prior to the EA challenge (0.2 mg/kg). All test compounds were administered orally 2 hours before the EA challenge. Inhibition (%) of broncho-constriction was determined as follows: Inhibition (%)=(1.0-% maximum bronchoconstriction in test/% maximum bronchoconstriction in control)×100. The maximum bronchoconstriction was 62±6% (Mean±S.E.M; n=6) and the number of test animals was 5-6.

[3] = biological target: T1, histamine H1 receptor (Bos taurus, UniProt P30546); assay: Binding test employing 3H-pyrilamine (histamine H1 receptor-binding test); settings: 0.5 h
T1 construct: suspension of bovine cerebellum; from tissue; host or cells: bovine cerebellum
T1 sequence (P30546 whole entry): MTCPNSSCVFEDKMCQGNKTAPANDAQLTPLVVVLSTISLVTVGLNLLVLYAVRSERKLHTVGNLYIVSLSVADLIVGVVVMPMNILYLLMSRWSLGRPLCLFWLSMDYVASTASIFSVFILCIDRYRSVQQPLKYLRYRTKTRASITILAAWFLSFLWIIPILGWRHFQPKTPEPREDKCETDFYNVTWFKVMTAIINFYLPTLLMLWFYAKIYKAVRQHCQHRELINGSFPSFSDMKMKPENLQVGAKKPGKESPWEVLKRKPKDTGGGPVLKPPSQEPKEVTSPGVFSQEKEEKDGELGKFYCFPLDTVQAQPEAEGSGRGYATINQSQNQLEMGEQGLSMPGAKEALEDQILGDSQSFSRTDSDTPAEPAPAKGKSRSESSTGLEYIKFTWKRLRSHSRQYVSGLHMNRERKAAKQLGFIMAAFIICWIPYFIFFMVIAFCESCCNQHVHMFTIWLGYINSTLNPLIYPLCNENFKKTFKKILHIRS
Experimental: Tritiated pyrilamine was added to a suspension of bovine cerebellum and a 50 mM phosphate buffer solution (pH 7.5), and the mixture was left to stand still at 25° C. for 30 minutes. Then, the mixture was rapidly filtered under suction through a glass fiber filter paper, and the radio activities on the filter paper were measured.

[4] = system: platelet; assay: Anti-platelet aggregation effect in rabbits (ADP-induced); assay type: cell-based, rabbit; settings: read-out: IC50 (concentration at which aggregation of control sample was 50% inhibited)
Experimental: Anti-platelet aggregation effect in rabbits
Blood was collected from the abdominal artery of Japanese white male rabbits (weight: 1.8 to 2.5 kg) into a syringe containing 1/10 volume 3.8% sodium citrate. The blood thus obtained was subjected to a centrifugation at 200×g for 7 minutes at room temperature to obtain platelet rich plasma (PRP). Furthermore, the residue was subjected to a centrifugation at 2000×g for 10 minutes to obtain platelet poor plasma (PPP). The measurement was effected by diluting PRP with PPP to 300,000/mm^3. PRP and PPP were placed in a cuvette, and the measurement range of transmittance was adjusted to 0% in the case of PRP and to 100% in the case of PPP. Thereafter, a test sample drug dissolved in 100% dimethylsulfoxide (DMSO) was added to PRP (the final concentration of DMSO: 0.25%). After incubation was effected at 37° C. at 900 rpm for 2 minutes, an aggregating agent was added to record an aggregation curve. The anti-platelet aggregation effect of the test sample drug was expressed by a concentration (IC50 : μM) at which the aggregation of control sample was 50% inhibited. The aggregating agent ADP was used at the minimum concentration (5 to 10 μM) which caused the maximum aggregation. The measurement of platelet aggregation was carried out by using NBS HEMA TRACER 601.

[5] = system: guinea-pig trachea; assay: Bronchodilating effect in vitro, Method 1-2: relaxation of guinea-pig trachea strips (no LTD4 contraction); assay type: cell-based; settings: Cavia porcellus, read-out: EC50 (concentration to achieve 50% relaxation relative to relaxation by 1 mM aminophylline)
Experimental: as §1, §2
The same measuring method as method 1-1 was employed. The specimen was allowed to stand for from 60 to 90 minutes and then relaxed by an addition of 1 μM of isopreterenol. The specimen was washed, and this operation was repeated at an interval of from 30 to 40 minutes until a constant relaxation reaction was reached. Then, a test sample drug was accumulately applied to relax the specimen. Finally, 1 mM of AP was added to achieve the maximum relaxation reaction. The result was expressed by relaxation percent relative to the relaxation by AP which was rated 100%, and a concentration to achieve 50% relaxation (EC50, μM) was obtained. The final concentration of DMSO in the bath was adjusted to be 0.2 v/v%. As a control drug, AP was used.

[6] = Method 1-1, LTD4 (30 nM) contracted trachea, indomethacin 5 μM
[7] = 30 mg/kg, orally 2 hours before EA challenge
[8] = Oryctolagus cuniculus, Platelet, rabbit PRP, ADP 5 to 10 μM, 37° C.
[9] = 10 μM, bovine cerebellum, pH 7.5, 25° C., 30 minutes, read-out: Inhibition ratio against H1-receptor
[10] = Method 1-2, trachea conditioned with 1 μM isoproterenol, no LTD4, DMSO 0.2 v/v%
[11] = 30 mg/kg, orally 2 hours before EA challenge, read-out: Inhibition of broncho-constriction

Row | EC50 [1, 6] [nM] | inhibition at 10 µM [3, 9] [%] | Structure (SMILES) | IC50 [4, 8] [nM] | EC50 [5, 10] [nM] | inhibition in vivo at 30 mg/kg [2, 11] [%] | also measured
1 | 470 | 94.4 | COc1ccc(CNc2c(Cl)n[nH]c(=O)c2Cl)cc1OCCCN1CCN(Cc2ccccc2)CC1 [Compound 25] | 5100 | – | 59 | –
2 | 750 | 92.6 | COc1ccc(CNc2cn[nH]c(=O)c2Cl)cc1OCCCN1CCN(Cc2ccc(F)cc2)CC1 [Compound 26] | – | 910 | 36 | –
3 | – | 93.6 | COc1ccc(CNc2c([N+](=O)[O-])n[nH]c(=O)c2Cl)cc1OCCCN1CCN(Cc2ccc(Cl)cc2)CC1 [Compound 29] | – | – | – | –
4 | 2600 | 90.5 | COc1ccc(CNc2c(Cl)n[nH]c(=O)c2Cl)cc1OCCCN1CCN(Cc2ccc(Cl)cc2)CC1 [Compound 30] | – | – | – | –
5 | 770 | – | COc1ccc(CNc2cn[nH]c(=O)c2Cl)cc1OCCCC(=O)N1CCN(Cc2ccccc2)CC1 [Compound 47] | 5700 | 540 | 37 | –

Second part, the compound before the results:

Row | Structure (SMILES) | EC50 [1, 6] [nM] | inhibition at 10 µM [3, 9] [%] | IC50 [4, 8] [nM] | EC50 [5, 10] [nM] | inhibition in vivo at 30 mg/kg [2, 11] [%] | also measured
6 | COc1ccc(CNc2cn[nH]c(=O)c2Br)cc1OCCN1CCN(Cc2ccc(Cl)cc2)CC1.Cl [Compound 7, 4-Bromo-5-[3-{2-(4-(4-chlorobenzyl)-piperazin-1-yl)-ethoxy}-4-methoxybenzylamino]-3(2H)-pyridazinone hydrochloride] | 490 | – | 5400 | – | – | Inhibition of broncho-constriction [2, 7]: 59%; inhibition at 10 µM ([3]; pH 7.5, read-out: Inhibition ratio against H1-receptor, 10 μM, bovine cerebellum, pH 7.5, 25° C., 30 minutes): 56.1%
7 | COc1ccc(CNc2cn[nH]c(=O)c2Br)cc1OCCN1CCN(Cc2ccc(Cl)cc2)CC1.O=C(O)/C=C/C(=O)O [Compound 8, 4-Bromo-5-[3-{2-(4-(4-chlorobenzyl)-piperazin-1-yl)-ethoxy}-4-methoxybenzylamino]-3(2H)-pyridazinone fumarate] | – | 56.5 | – | – | – | Inhibition of broncho-constriction [2, 7]: 32%; IC50 ([4]; rabbit PRP, ADP 5 to 10 μM, 37° C., fumarate): 5500 nM
8 | CCn1ncc(NCc2ccc(OC)c(OCCN3CCN(Cc4ccc(F)cc4)CC3)c2)c(Cl)c1=O [Compound 17] | 3300 | 55.8 | – | – | – | –
9 | COc1ccc(CNc2cn[nH]c(=O)c2Br)cc1OCCCN1CCN(Cc2ccccc2)CC1 [Compound 22] | 390 | 86.6 | 2100 | – | – | –
10 | COc1ccc(CNc2cn[nH]c(=O)c2Cl)cc1OCCCN1CCN(Cc2ccccc2)CC1 [Compound 23] | 1300 | 92.2 | 4600 | – | – | –
11 | COc1ccc(CNc2c([N+](=O)[O-])n[nH]c(=O)c2Cl)cc1OCCCN1CCN(Cc2ccccc2)CC1 [Compound 24] | 2000 | 89.2 | – | 980 | – | –
12 | COc1ccc(CNc2cn[nH]c(=O)c2Cl)cc1OCC(=O)N1CCN(Cc2ccccc2)CC1 [Compound 36] | – | – | – | – | – | EC50 [1]: 320 nM; EC50 [5]: 240 nM; inhibition in vivo at 30 mg/kg ([2]; read-out: Inhibition of broncho-constriction, 30 mg/kg, orally 2 hours before EA challenge): 41%; IC50 ([4]; Oryctolagus cuniculus, Platelet): 1600 nM
13 | COc1ccc(CNc2cn[nH]c(=O)c2Cl)cc1OCC(=O)N1CCN(Cc2ccc(F)cc2)CC1 [Compound 39] | 160 | – | 1400 | 170 | 63 | –
14 | COc1ccc(CNc2cn[nH]c(=O)c2Br)cc1OCC(=O)N1CCN(Cc2ccc(F)cc2)CC1 [Compound 43] | 400 | – | 2200 | 280 | 62 | –
15 | CCOc1n[nH]c(=O)c(Cl)c1NCc1ccc(OC)c(OCC(=O)N2CCN(Cc3ccc(F)cc3)CC2)c1 [Compound 64] | 320 | – | 390 | 61 | 26 | –
16 | CCOc1n[nH]c(=O)c(Cl)c1NCc1ccc(OC)c(OCC(=O)N2CCN(Cc3ccc4ccccc4n3)CC2)c1 [Compound 67] | 170 | – | 400 | 41 | 29 | –
